Test results: DBAASP
≈ marks a conversion by molar mass, not a printed value.

Key:
Assay in all cases: ≥ marks a high value that may be exact or a test limit, other limits are often not marked, values filed in µg/mL are converted to µM
[1] = tested on: Acinetobacter baumannii
[2] = tested on: Enterococcus faecium
[3] = tested on: Escherichia coli ATCC 25922
[4] = tested on: Klebsiella pneumoniae
[5] = tested on: Pseudomonas aeruginosa
[6] = tested on: Staphylococcus aureus ATCC 43300
[7] = tested on: Streptococcus pneumoniae
[8] = tested on: Bacillus cereus
[9] = tested on: Bacillus subtilis ATCC 6633
[10] = tested on: Candida albicans ATCC 2002
[11] = tested on: Shigella dysenteriae
[12] = tested on: Staphylococcus aureus ATCC 2592
[13] = tested on: Bacillus subtilis
[14] = tested on: Candida albicans
[15] = tested on: Escherichia coli
[16] = tested on: Staphylococcus aureus
[17] = tested on: Corynebacterium xerosis C875
[18] = tested on: Escherichia coli DC2
[19] = tested on: Escherichia coli UB1005
[20] = tested on: Staphylococcus epidermidis C621
[21] = tested on: Pseudomonas aeruginosa ATCC 27853
[22] = tested on: Escherichia coli ML-35p
[23] = tested on: Staphylococcus aureus ATCC 25923

| Compound | MIC [3] [µM] | MIC [10] [µM] | MIC [17] [µM] | MIC [18] [µM] | MIC [19] [µM] | MIC [20] [µM] | further results |
| --- | --- | --- | --- | --- | --- | --- | --- |
| CC[C@H](C)[C@H](NC(=O)CNC(=O)[C@H](Cc1cnc[nH]1)NC(=O)CNC(=O)CN)C(=O)N[C@@H](CCCN=C(N)N)C(=O)N[C@@H](CCCN=C(N)N)C(=O)N[C@H](C(=O)N[C@H](C(=O)N[C@@H](CCCN=C(N)N)C(=O)N[C@@H](CCCCN)C(=O)N[C@H](C(=O)N[C@H](C(=O)N[C@@H](Cc1cnc[nH]1)C(=O)N[C@H](C(=O)N[C@H](C(=O)N[C@@H](CCCCN)C(=O)N[C@@H](CCCCN)C(N)=O)[C@@H](C)CC)[C@@H](C)CC)[C@@H](C)CC)[C@@H](C)CC)[C@@H](C)CC)[C@@H](C)CC [GGHGIRRIIRKIIHIIKK] | > 16 | – | – | – | – | – | MIC [1]: 2.7 µM (≈ 5.69 µg/mL); MIC [2]: 16 µM (≈ 33.7 µg/mL); MIC [4]: 16 µM (≈ 33.7 µg/mL); MIC [5]: > 16 µM; MIC [6]: 16 µM (≈ 33.7 µg/mL); MIC [7]: 16 µM (≈ 33.7 µg/mL) |
| CC[C@H](C)[C@H](NC(=O)CN)C(=O)N[C@@H](CC(C)C)C(=O)N[C@@H](CC(=O)O)C(=O)N1CCC[C@H]1C(=O)N[C@H](C(=O)N[C@@H](CCCCN)C(=O)N[C@@H](C)C(=O)N[C@@H](Cc1ccccc1)C(=O)N[C@@H](C)C(=O)N[C@@H](CCCCN)C(=O)N[C@@H](C)C(=O)N[C@@H](C)C(=O)NCC(N)=O)[C@@H](C)CC [GILDPIKAFAKAAG] | 16 (≈ 22 µg/mL) | ≥ 32.1 | – | – | – | – | MIC [8]: 16 µM (≈ 22 µg/mL); MIC [9]: 8.02 µM (≈ 11 µg/mL); MIC [5]: 8.02 µM (≈ 11 µg/mL); MIC [11]: 4.01 µM (≈ 5.5 µg/mL); MIC [12]: 4.01 µM (≈ 5.5 µg/mL) |
| CC[C@H](C)[C@H](NC(=O)CNC(=O)[C@H](CO)NC(=O)[C@H](CC(C)C)NC(=O)[C@H](CC(C)C)NC(=O)CN)C(=O)N[C@@H](CC(C)C)C(=O)NCC(=O)N[C@@H](C)C(=O)NCC(=O)N[C@@H](CCCCN)C(=O)N[C@@H](Cc1cnc[nH]1)C(=O)N[C@H](C(=O)N[C@H](C(=O)N[C@H]1CSSC[C@@H](C(=O)O)NC(=O)[C@H](CC(C)C)NC(=O)CNC(=O)[C@H](CO)NC(=O)[C@H](CC(C)C)NC(=O)CNC1=O)C(C)C)[C@@H](C)CC [GLLSGILGAGKHIVCGLSGLC] | 2.54 (≈ 5 µg/mL) | 3.81 (≈ 7.49 µg/mL) | – | – | – | – | MIC [13]: 4.76 µM (≈ 9.36 µg/mL); MIC [14]: 4.76 µM (≈ 9.36 µg/mL); MIC [15]: > 50.8 µM; MIC [11]: 1.27 µM (≈ 2.5 µg/mL); MIC [12]: 1.27 µM (≈ 2.5 µg/mL); MIC [16]: 38.1 µM (≈ 74.9 µg/mL) |
| C[C@H](NC(=O)[C@H](C)NC(=O)[C@H](C)NC(=O)[C@H](C)NC(=O)[C@H](C)NC(=O)[C@H](C)NC(=O)[C@H](C)NC(=O)[C@H](CCCCN)NC(=O)[C@@H](N)CCCCN)C(=O)N[C@@H](C)C(=O)N[C@@H](C)C(=O)N[C@@H](C)C(=O)N[C@@H](C)C(=O)N[C@@H](C)C(=O)N[C@@H](Cc1c[nH]c2ccccc12)C(=O)N[C@@H](C)C(=O)N[C@@H](C)C(=O)N[C@@H](C)C(=O)N[C@@H](C)C(=O)N[C@@H](C)C(=O)N[C@@H](C)C(=O)N[C@@H](CCCCN)C(=O)N[C@@H](CCCCN)C(=O)N[C@@H](CCCCN)C(=O)N[C@@H](CCCCN)C(N)=O [KKAAAAAAAAAAAAWAAAAAAKKKK] | – | – | 2 (≈ 4.5 µg/mL) | ≥ 64 | ≥ 64 | ≥ 64 | – |
| C[C@H](NC(=O)[C@H](C)NC(=O)[C@H](C)NC(=O)[C@H](CCCN=C(N)N)NC(=O)[C@H](C)NC(=O)[C@H](C)NC(=O)[C@H](C)NC(=O)[C@H](CCCCN)NC(=O)[C@@H](N)CCCCN)C(=O)N[C@@H](C)C(=O)N[C@@H](C)C(=O)N[C@@H](CCCN=C(N)N)C(=O)N[C@@H](C)C(=O)N[C@@H](C)C(=O)N[C@@H](Cc1c[nH]c2ccccc12)C(=O)N[C@@H](C)C(=O)N[C@@H](C)C(=O)N[C@@H](CCCN=C(N)N)C(=O)N[C@@H](C)C(=O)N[C@@H](C)C(=O)N[C@@H](C)C(=O)N[C@@H](CCCCN)C(=O)N[C@@H](CCCCN)C(=O)N[C@@H](CCCCN)C(=O)N[C@@H](CCCCN)C(N)=O [KKAAARAAAAARAAWAARAAAKKKK] | – | – | 8 (≈ 20.1 µg/mL) | ≥ 32 | ≥ 64 | ≥ 64 | – |
| C[C@H](NC(=O)[C@H](C)NC(=O)[C@H](C)NC(=O)[C@H](CO)NC(=O)[C@H](C)NC(=O)[C@H](C)NC(=O)[C@H](C)NC(=O)[C@H](CCCCN)NC(=O)[C@@H](N)CCCCN)C(=O)N[C@@H](C)C(=O)N[C@@H](C)C(=O)N[C@@H](CO)C(=O)N[C@@H](C)C(=O)N[C@@H](C)C(=O)N[C@@H](Cc1c[nH]c2ccccc12)C(=O)N[C@@H](C)C(=O)N[C@@H](C)C(=O)N[C@@H](CO)C(=O)N[C@@H](C)C(=O)N[C@@H](C)C(=O)N[C@@H](C)C(=O)N[C@@H](CCCCN)C(=O)N[C@@H](CCCCN)C(=O)N[C@@H](CCCCN)C(=O)N[C@@H](CCCCN)C(N)=O [KKAAASAAAAASAAWAASAAAKKKK] | – | – | ≥ 64 | ≥ 64 | ≥ 64 | ≥ 64 | – |
| CC(C)[C@H](NC(=O)[C@H](C)NC(=O)[C@H](C)NC(=O)[C@H](C)NC(=O)[C@H](CCCCN)NC(=O)[C@@H](N)CCCCN)C(=O)N[C@@H](C)C(=O)N[C@@H](C)C(=O)N[C@@H](C)C(=O)N[C@@H](C)C(=O)N[C@@H](C)C(=O)N[C@H](C(=O)N[C@@H](C)C(=O)N[C@@H](C)C(=O)N[C@@H](Cc1c[nH]c2ccccc12)C(=O)N[C@@H](C)C(=O)N[C@@H](C)C(=O)N[C@H](C(=O)N[C@@H](C)C(=O)N[C@@H](C)C(=O)N[C@@H](C)C(=O)N[C@@H](CCCCN)C(=O)N[C@@H](CCCCN)C(=O)N[C@@H](CCCCN)C(=O)N[C@@H](CCCCN)C(N)=O)C(C)C)C(C)C [KKAAAVAAAAAVAAWAAVAAAKKKK] | – | – | 0.5 (≈ 1.17 µg/mL) | ≥ 32 | ≥ 32 | ≥ 32 | – |
| C[C@H](NC(=O)[C@H](C)NC(=O)[C@H](Cc1ccccc1)NC(=O)[C@H](C)NC(=O)[C@H](C)NC(=O)[C@H](Cc1c[nH]c2ccccc12)NC(=O)[C@H](C)NC(=O)[C@H](C)NC(=O)[C@H](Cc1ccccc1)NC(=O)[C@H](C)NC(=O)[C@H](C)NC(=O)[C@H](CCCN=C(N)N)NC(=O)[C@H](CCCN=C(N)N)NC(=O)[C@H](CCCN=C(N)N)NC(=O)[C@H](CCCN=C(N)N)NC(=O)[C@H](CCCN=C(N)N)NC(=O)[C@@H](N)CCCN=C(N)N)C(N)=O [RRRRRRAAFAAWAAFAA] | 4 (≈ 8.01 µg/mL) | – | 0.5 (≈ 1 µg/mL) | 0.5 (≈ 1 µg/mL) | 1 (≈ 2 µg/mL) | 4 (≈ 8.01 µg/mL) | MIC [21]: 8 µM (≈ 16 µg/mL) |
| CC[C@H](C)[C@H](NC(=O)CNC(=O)[C@H](CCSC)NC(=O)CNC(=O)[C@H](C)NC(=O)[C@H](CO)NC(=O)[C@H](CCCCN)NC(=O)[C@H](C)NC(=O)[C@H](CC(C)C)NC(=O)[C@H](CC(=O)O)NC(=O)[C@@H](NC(=O)[C@H](C)NC(=O)[C@@H](NC(=O)[C@@H](NC(=O)[C@H](CCCCN)NC(=O)[C@@H](NC(=O)[C@H](CCCCN)NC(=O)[C@H](CC(=O)O)NC(=O)[C@H](CCCN=C(N)N)NC(=O)[C@@H](NC(=O)[C@@H](N)CO)[C@@H](C)CC)[C@@H](C)CC)[C@@H](C)O)[C@@H](C)CC)[C@@H](C)CC)C(=O)N[C@@H](CC(C)C)C(=O)N[C@@H](CCCCN)C(=O)N[C@H](C(=O)N[C@@H](CC(C)C)C(=O)N[C@H](C(=O)N[C@H]1CSSC[C@@H](C(=O)O)NC(=O)[C@H](CO)NC(=O)[C@H](CCCCN)NC(=O)[C@H](CC(=O)O)NC(=O)[C@H](CC(C)C)NC(=O)[C@H](CCCCN)NC1=O)[C@@H](C)CC)[C@@H](C)O [SIRDKIKTIAIDLAKSAGMGILKTLICKLDKSC] | – | 4.23 (≈ 15 µg/mL) | – | – | – | – | MIC [13]: 5.28 µM (≈ 18.7 µg/mL); MIC [22]: 7.05 µM (≈ 25 µg/mL); MIC [21]: > 28.2 µM; MIC [23]: 4.65 µM (≈ 16.5 µg/mL) |
